Like-named read-outs stand apart in the source and are kept apart here.
What was measured:
[1] = system: immature articular cartilage explants; assay: Disc-core cartilage explant integration culture with histology; assay type: cell-based
Description: (§1) Six millimetre diameter cartilage explants from immature articular cartilage containing 3 mm diameter inner cores, both created using punch biopsy tools (Steifel), were placed in Dulbecco's modified Eagles medium (DMEM) culture medium containing various concentrations of interleukin-1β or tumour necrosis factor α (TNFα; Peprotech), or, the culture medium without cytokine as a control. The medium was removed after the nominated time and washed once with DMEM then replaced with DMEM medium containing 50 μg/ml ascorbate, 10 mM HEPES, gentamycin and supplemented with 1× insulin-transferrin-selenium (ITS; Sigma). For qPCR studies the explants were first allowed to equilibriate in serum containing medium for 3 days, then washed 3 times in serum-free DMEM before the treatment as described above. For long term culture following 2 hour cytokine treatment explants were treated immediately following their excision from the joint, then cultured for 4 weeks in serum-free DMEM containing ITS, ascorbate, HEPES and gentamycin. The culture medium was changes 3 times a week.
Four week core and disc cultures were fixed with neutral-buffered formyl-saline and left overnight at 4 C. The explants were then processed for wax embedding. Ten micron sections were cut using a microtome, and sections dewaxed and rehydrated in a descending series of alcohols. Sections were stained with haemotoxylin (1 minute), washed in water and then stained with Safranin-O (2 minutes) washed briefly in water and then dehydrated, dipped in xylene and then mounted in DPX liquid under coverslips.

[2] = system: immature articular cartilage explants; assay: Mechanical push-out test of disc/ring interface; assay type: cell-based; conditions: FIG. 2, 3 weeks in culture, n=4
Description: as §1, with “For long term culture following 2 hour cytokine treatment explants were treated immediately following their excision from the joint, then cultured for 4 weeks in serum-free DMEM containing ITS, ascorbate, HEPES and gentamycin. The culture medium was changes 3 times a week.” left out
Adhesive properties of the disc/ring interface after 3-weeks in culture were assessed using a push-out test (n=4). Thickness of the sample was measured using calipers. […] A computer activated micro-stepper controlled the displacement of the push-out rod (0.05 mm/min), whilst a load cell (100N) coupled to the rod measured the push-out force. The adhesive strength was calculated from the maximum force measured at failure per unit of interfacial area.

[3] = system: MMP13 gene expression; assay: qPCR MMP13 gene expression in cartilage explants; assay type: cell-based
Method: The medium was removed after the nominated time and washed once with DMEM then replaced with DMEM medium containing 50 μg/ml ascorbate, 10 mM HEPES, gentamycin and supplemented with 1× insulin-transferrin-selenium (ITS; Sigma). For qPCR studies the explants were first allowed to equilibriate in serum containing medium for 3 days, then washed 3 times in serum-free DMEM before the treatment as described above. For long term culture following 2 hour cytokine treatment explants were treated immediately following their excision from the joint, then cultured for 4 weeks in serum-free DMEM containing ITS, ascorbate, HEPES and gentamycin. The culture medium was changes 3 times a week.
Quantitative polymerase chain reaction (qPCR) using the fluorescent dye SYBR Green (Eurogentec, Belgium) was used to determine the absolute expression levels of ADAMTS4 and MMP-13 between explants. Real-time PCR reactions were carried out in 25 μl volumes in a 96-well plate (Applied Biosystems™) containing 1× buffer (10×), 3.5 mM MgCl2, 200 μM dNTPs, 0.3 μM of sense and antisense primers, 0.025 U enzyme and 1:66000 SYBR GreenI®. All reactions were made using gPCR™ Core Kit for SYBR Green I® (Eurogentec). At the end of each reaction, the cycle threshold (CT) was manually setup at the level that reflected the best kinetic PCR parameters, and melting curves were acquired and analysed. Absolute values for the gene of interest were calculated from standard curves generated using serially diluted plasmid cloned and sequence verified template (ng DNA) and were normalized to the housekeeping gene 18S rRNA.

[4] = system: cartilage; conditions: in vitro, cited from earlier work

Compound	integration between disc and core cartilages ([1]; 10 ng/ml for 24 hours, unsupplemented culture medium, cultured for a further 2 weeks (FIG. 1A))	chondrocyte migration in the interfacial matrix ([1]; 25 ng/ml IL1β for 2 hours, then 4 weeks culture, high power histology (FIG. 9))	integration, assessed qualitatively through retention of matrix integrity (safranin-O histology) ([1]; 25 ng/ml IL1β for 2 hours, then 4 weeks serum-free culture with ITS (FIG. 8))	force to push out the explant from the disc versus untreated explants [2]	increase in MMP13 gene expression ([3]; 25 ng/ml IL1β, 2 hours, P>0.116, n=3 (FIG. 3)) [fold]	MMP13 gene expression, effect of increasing concentrations ([3]; 12.5-100 ng/ml for 2 hours)	cartilage integration ([4]; 1 pg/ml or 100 pg/ml, 14 days)	cartilage integration ([4]; 10 pg/ml, incubation of the cartilage for 14 days)	increase in MMP13 gene expression ([3]; 100 μM retinoic acid, 2 hour incubation, P<0.03, n=3 (FIG. 6))
IL1β: catabolic cytokine, member of the interleukin-1 superfamily	enhances integration	presence of migrating chondrocytes within the interfacial matrix	best achieved	almost six times more force	1.64	increase in MMP13 gene expression	not consistent	enhanced cartilage integration	
CC1=C(/C=C/C(C)=C/C=C/C(C)=C/C(=O)O)C(C)(C)CCC1 [Retinoic acid, reference compound]									approximately 3 fold

Reference: US20110293559A1, “CATABOLIC AGENTS” (priority 2008, published 2011)
